Measured values published in patent US12653190B2, “Heteroaryl-triazole compounds as pesticides” (Bayer Aktiengesellschaft, priority 2020, dated 2026).

What was measured:
Format in all cases: in vivo
[1] = system: larvae of the banded cucumber beetle (Diabrotica balteata); test: Diabrotica balteata spray test; settings: 168 h, after 7 days, wheat seeds, read-out: efficacy (seedling growth); for pest or weed control at 160 µg/disc, 500 g/ha: 500 g/ha (=160 μg/well); for pest or weed control at 32 µg/disc, 100 g/ha: 100 g/ha (=32 μg/well)
Outline: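 Efficacy is seedling survival after 7 days, where 0% means no seedlings grew and 100% means growth equal to untreated, uninfested controls. Wheat seedlings, germinated on agar for 1 day, were sprayed with the aqueous emulsifier dilution (acetone/DMF solvent) and then exposed to 10–20 banded cucumber beetle larvae.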

[2] = system: brown planthopper (Nilaparvata lugens); test: Nilaparvata lugens spray test; settings: 96 h, after 4 days, rice plants
Method: Nilaparvata lugens—Spray Test • Solvent: 78.0 parts by weight of acetone • 1.5 parts by weight of dimethylformamide • Emulsifier: alkylarylpolyglycol ether
To produce a suitable preparation of active compound, 1 part by weight of active compound is mixed with the stated amount of solvents and is diluted with water, containing an emulsifier concentration of 1000 ppm, to the desired concentration. Further test concentrations are prepared by dilution with emulsifier containing water.
Rice plants (Oryza sativa) are sprayed with a preparation of the active ingredient of the desired concentration and the plants are infested with the brown planthopper (Nilaparvata lugens).
After 4 days mortality in % is determined. 100% means all planthoppers have been killed and 0% means none of the planthoppers have been killed.

[3] = system: larvae of the southern green stink bug (Nezara viridula); test: Nezara viridula spray test; settings: 96 h, after 4 days, barley plants
Outline: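 Percent mortality of southern green stink bug larvae was recorded at day 4, with 100% meaning all dead. The larvae were placed on barley sprayed with the test solution. That solution was prepared from acetone/dimethylformamide concentrate diluted in emulsifier-containing water (1000 ppm).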

[4] = system: adult engorged female ticks (Rhipicephalus microplus); test: Rhipicephalus (Boophilus) microplus injection test; settings: 168 h, egg deposition monitored after 7 days, read-out: efficacy (infertile eggs); for pest or weed control at 4 µg/tick: 4 μg/tick injected; for pest or weed control at 20 µg/tick: 20 μg/tick injected
Outline: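 Five adult engorged female ticks each injected with 1 μL of DMSO compound solution into the abdomen, then kept in a climate chamber. Fertile egg deposition assessed after 7 days, with hatching followed to about 42 days; efficacy 100% means all eggs infertile, 0% all fertile.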

[5] = system: adult unfed cat fleas (Ctenocephalides felis); test: Ctenocephalides felis oral test; settings: 48 h, 100 ppm in cattle blood, after 2 days
Method: Ctenocephalides felis—Oral Test
• Solvent: dimethyl sulfoxide
To produce a suitable preparation of active compound, 10 mg of active compound are dissolved in 0.5 mL solvent, and the concentrate is diluted with cattle blood to the desired concentration.
Approximately 20 adult unfed cat fleas (Ctenocephalides felts) are placed in flea chambers. The blood chamber, sealed with parafilm on the bottom, are filled with cattle blood supplied with compound solution and placed on the gauze covered top of the flea chamber, so that the fleas are able to suck the blood. The blood chamber is heated to 37° C. whereas the flea chamber is kept at room temperature.
After 2 days mortality in % is determined. 100% means all the fleas have been killed; 0% means none of the fleas have been killed.

[6] = system: Rhipicephalus (Boophilus) microplus larvae (strain Parkhurst, resistant against synthetic pyrethroids); test: Rhipicephalus (Boophilus) microplus in-vitro contact test, larval cattle tick; settings: 5 μg/cm^2 (=500 g/ha), after 48 hours, read-out: efficacy (larvae dead or moribund)
Outline: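 Acetone solutions coated onto glass tube walls, 900 ppm giving 5 μg/cm^2; 20–50 larvae per tube after solvent evaporation. Incubated 48 h at 27 °C, 85% relative humidity; efficacy from negative geotaxis, 100% meaning all larvae dead or moribund.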

[7] = system: fall armyworm larvae (Spodoptera frugiperda); test: Spodoptera frugiperda spray test; settings: in Zea mays, 168 h
Outline: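 Maize leaf sections were sprayed with compound in acetone/dimethylformamide diluted in water with 1000 ppm emulsifier, dried, then infested with larvae. Mortality in % was scored after 7 days, 100% meaning all caterpillars killed.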

[8] = system: adult cat fleas (Ctenocephalides felis); test: Ctenocephalides felis in-vitro contact test, adult cat flea; settings: 5 μg/cm^2 (=500 g/ha), after 48 hours, read-out: efficacy (fleas dead or moribund)
Method: Ctenocephalides felis—In-Vitro Contact Tests Adult Cat Flea
9 mg compound is solved in 1 mL acetone and diluted with acetone to the desired concentration. 250 μL of the test solution is filled in 25 mL glass test tubes and homogeneously distributed on the inner walls by rotation and tilting on a shaking device (2 h at 30 rpm). With a compound concentration of 900 ppm, an inner surface of 44.7 cm^2 and a homogeneous distribution, a dose of 5 μg/cm^2 is achieved.
After the solvent has evaporated, each test tube is filled with 5-10 adult cat fleas (Ctenocephalides felis), closed with a perforated lid and incubated in a lying position at room temperature and relative humidity. After 48 hours efficacy is determined. The fleas are patted on the ground of the tubes and are incubated on a heating plate at 45-50° C. for at most 5 minutes Immotile or uncoordinated moving fleas, which are not able to escape the heat by climbing upwards, are marked as dead or moribund.
An efficacy of 100% means all fleas are dead or moribund; 0% means no fleas are dead or moribund.

[9] = system: southern root-knot nematode (Meloidogyne incognita); test: Meloidogyne incognita test; settings: 20 ppm, after 14 days
Method: Meloidogyne incognita—Test
• Solvent: 125.0 parts by weight of acetone
To produce a suitable preparation of active compound, 1 part by weight of active compound is mixed with the stated amount of solvent, and the concentrate is diluted with water to the desired concentration. Vessels are filled with sand, a solution of the active ingredient, a suspension containing eggs and larvae of the southern root-knot nematode (Meloidogyne incognita) and salad seeds. The salad seeds germinate and the seedlings grow. Galls develop in the roots.
After 14 days the nematicidal activity is determined on the basis of the percentage of gall formation. 100% means no galls were found and 0% means the number of galls found on the roots of the treated plants was equal to that in untreated control plants.

[10] = system: adult flies Musca domestica strain WHO-N; test: Musca domestica test (MUSCDO surface treatment & contact assay); settings: surface concentration 20 mg/m^2, 30 minutes exposure, 24 hours after contact, read-out: efficacy (mortality)
Method: Musca domestica Test (MUSCDO Surface Treatment & Contact Assay)
• Solvent: Aceton+2000 ppm rapeseed oil methyl ester (RME)
In order to produce a sufficient, active ingredient containing solution it is necessary to solve the test compound in the solvent-mix (acetone at 2 mg/ml/RME 2000 ppm). This solution is pipetted onto a glazed tile and after evaporation of the acetone, adult flies of the species Musca domestica strain WHO-N are placed onto the dried surface. The exposure time is 30 minutes.
Mortality in percent (%) is determined 24 hours after contact of the insects to the treated surface. 100% mortality means that all tested insects are dead, whereas 0% means that no insect died.

[11] = system: green peach aphid (Myzus persicae); test: Myzus persicae spray test; settings: foliar, 120 h, after 5 days, Chinese cabbage leaf disks
Outline: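 Chinese cabbage leaf disks infested with all aphid instars were sprayed with compound in acetone/DMF, diluted in water with 1000 ppm alkylarylpolyglycol ether emulsifier. Mortality (%) scored after 5 days, 100% meaning all aphids killed.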

Compound	mortality at 100 g/ha [3] [%]	pest or weed control at 4 µg/tick [4] [%]	pest or weed control at 20 µg/tick [4] [%]	pest or weed control at 5 µg/cm2, 5 µg/cm2 [6] [%]	nematicidal activity (gall formation) [9] [%]	mortality at 100 g/ha [7] [%]	pest or weed control at 32 µg/disc, 100 g/ha [1] [%]	mortality at 500 g/ha [2] [%]	mortality at 500 g/ha [3] [%]	also measured
Cc1cc(OC2CCCC2)cc(C(=O)N[C@@H](C)c2ncnn2-c2ccc(C#N)cn2)c1 [Example I-4, N-{(1S)-1-[1-(5-Cyanopyridin-2-yl)-1H-1,2,4-triazol-5-yl]ethyl}-3-(cyclopentyloxy)-5-methylbenzamide]	100	100	100							pest or weed control at 160 µg/disc, 500 g/ha [1]: 100%; mortality at 100 g/ha [2]: 100%
Cc1cc(OC2COC2)cc(C(=O)N[C@@H](C)c2ncnn2-c2ccc(C#N)cn2)c1 [Example I-6, N-{(1S)-1-[1-(5-Cyanopyridin-2-yl)-1H-1,2,4-triazol-5-yl]ethyl}-3-methyl-5-(oxetan-3-yloxy)benzamide]	100	100	100	90						pest or weed control at 160 µg/disc, 500 g/ha [1]: 100%; mortality at 100 ppm [5]: 100%; mortality at 100 g/ha [2]: 100%; mortality at 500 g/ha [7]: 100%; pest or weed control at 5 µg/cm2, 5 µg/cm2 [8]: 100%
C[C@H](NC(=O)c1cc(Cl)cc(Oc2ccc(F)cc2)c1)c1ncnn1-c1ccc(C#N)cn1 [Example I-9]		100	100	90	90					
C[C@H](NC(=O)c1cc(Br)cc(C(F)(F)c2ccc(F)cc2)c1)c1ncnn1-c1ccc(C#N)cn1 [Example I-25]		100		100	90	100				mortality at 100 ppm [5]: 90%
C[C@H](NC(=O)c1cc(Cl)cc(C(C)(C)C#N)c1)c1nc(C2CC2)nn1-c1ccc(C#N)cn1 [Example I-38]	90					100	100	100	100	mortality at 20 mg/m2 [10]: 80 to 100%
Cc1nc([C@H](C)NC(=O)c2cc(OC(F)(F)F)cc(C(C)(C)C#N)c2)n(-c2ncc(C#N)s2)n1 [Example I-51]						100	100	100	100	
CCN(C)C(=O)c1ccc(-n2nc(C)nc2[C@H](C)NC(=O)c2cc(Cl)cc(C(C)(C)C#N)c2)nc1 [Example I-52, 6-[5-[(1S)-1-[[3-chloro-5-(1-cyano-1-methyl-ethyl)benzoyl]amino]ethyl]-3-methyl-1,2,4-triazol-1-yl]-N-ethyl-N-methyl-pyridine-3-carboxamide]				90	100	100			100	
C[C@H](NC(=O)c1cc(OC(F)(F)F)cc(C(C)(C)C#N)c1)c1ncnn1-c1cc(C#N)ncn1 [Example I-66]						100	100	100	100	mortality at 100 g/ha [11]: 100%
